# Experimental data: article PMC6199744, “Development of Chemical Proteomics for the Folateome and Analysis of the Kinetoplastid Folateome” (ACS Infectious Diseases, 2018)
# Where two headings read alike, the source gives them in different places.
# Experiments:
# [1] = system: haloacid dehalogenase-like hydrolase (LmjF.28.1370); experiment: Multitargeted bead mixture competition; type: binding, Leishmania; settings: for fold change: protein LMJF.28.1370 HALOACID DEHALOGENASE-LIKE HYDROLASE, PUTATIVE, vehicle control = 1
# [2] = system: methylthioadenosine phosphorylase (LmjF.05.0830); experiment: Multitargeted bead mixture competition; type: binding, Leishmania; settings: for fold change vs vehicle control: protein LMJF.05.0830 METHYLTHIOADENOSINE PHOSPHORYLASE, PUTATIVE
# [3] = molecular target: T1, MTHF complex (DHCH protein in humans) (Homo sapiens, UniProt P11586); experiment: Multitargeted bead mixture competition, HeLa cell extract; type: binding
# T1 sequence (P11586 1-935): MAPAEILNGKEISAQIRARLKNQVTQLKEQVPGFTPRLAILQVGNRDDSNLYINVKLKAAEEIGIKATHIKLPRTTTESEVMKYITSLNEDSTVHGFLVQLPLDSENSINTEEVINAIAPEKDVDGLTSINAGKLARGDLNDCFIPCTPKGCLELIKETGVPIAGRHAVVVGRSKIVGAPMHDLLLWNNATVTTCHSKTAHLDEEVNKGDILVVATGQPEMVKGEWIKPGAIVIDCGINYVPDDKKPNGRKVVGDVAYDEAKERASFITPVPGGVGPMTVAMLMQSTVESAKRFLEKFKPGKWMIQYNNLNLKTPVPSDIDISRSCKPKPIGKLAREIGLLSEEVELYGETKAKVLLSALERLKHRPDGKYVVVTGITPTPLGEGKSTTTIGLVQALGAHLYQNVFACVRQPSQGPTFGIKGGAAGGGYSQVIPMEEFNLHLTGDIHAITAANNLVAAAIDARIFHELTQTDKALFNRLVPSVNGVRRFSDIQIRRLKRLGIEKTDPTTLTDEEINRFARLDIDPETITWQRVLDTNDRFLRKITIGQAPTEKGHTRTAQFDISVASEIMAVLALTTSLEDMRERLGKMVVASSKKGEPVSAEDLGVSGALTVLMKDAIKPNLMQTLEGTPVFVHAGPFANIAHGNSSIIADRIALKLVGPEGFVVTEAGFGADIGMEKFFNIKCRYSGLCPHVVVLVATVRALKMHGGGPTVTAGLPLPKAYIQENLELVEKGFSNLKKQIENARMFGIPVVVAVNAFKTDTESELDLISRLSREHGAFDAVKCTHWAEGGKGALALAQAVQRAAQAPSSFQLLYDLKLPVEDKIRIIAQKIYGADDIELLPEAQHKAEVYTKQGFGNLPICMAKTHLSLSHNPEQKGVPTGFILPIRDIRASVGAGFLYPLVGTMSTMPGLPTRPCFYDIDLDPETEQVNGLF
# [4] = molecular target: T2, MTHFS, the 5-formyl-THF-cyclo-ligase (Homo sapiens, UniProt P49914); experiment: as above; type: binding; settings: for binding to MTHFS: bead mixture, HeLa cell extract
# T2 sequence (P49914 1-203): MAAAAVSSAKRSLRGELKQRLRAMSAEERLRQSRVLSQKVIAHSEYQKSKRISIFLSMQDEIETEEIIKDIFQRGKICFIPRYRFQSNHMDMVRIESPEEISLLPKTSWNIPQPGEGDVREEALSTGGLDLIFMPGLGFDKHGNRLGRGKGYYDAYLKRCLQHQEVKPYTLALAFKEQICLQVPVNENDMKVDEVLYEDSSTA
# [5] = molecular target: T3, HeLa cell extract proteins (Homo sapiens, UniProt Q9BPW8); type: binding
# T3 construct: endogenous in cells; host or cells: HeLa cell extract
# T3 sequence (Q9BPW8 36-284): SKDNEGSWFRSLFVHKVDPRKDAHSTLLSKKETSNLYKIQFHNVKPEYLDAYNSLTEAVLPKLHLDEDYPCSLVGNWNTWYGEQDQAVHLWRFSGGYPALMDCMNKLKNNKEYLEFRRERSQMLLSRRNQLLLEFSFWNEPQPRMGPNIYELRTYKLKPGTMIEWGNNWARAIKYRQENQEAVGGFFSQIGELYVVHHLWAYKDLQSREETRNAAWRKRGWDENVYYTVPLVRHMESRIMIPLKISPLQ
# [6] = molecular target: T4, HeLa cell extract proteins (Homo sapiens, UniProt Q01469); type: binding
# T4 construct: endogenous in cells; host or cells: HeLa cell extract
# T4 sequence (Q01469 whole entry): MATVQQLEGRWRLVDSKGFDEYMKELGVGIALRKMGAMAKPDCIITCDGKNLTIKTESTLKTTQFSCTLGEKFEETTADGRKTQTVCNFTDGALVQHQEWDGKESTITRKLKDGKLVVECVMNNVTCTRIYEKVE
# [7] = molecular target: T5, HeLa cell extract proteins (Homo sapiens, UniProt P14373); type: binding
# T5 construct: endogenous in cells; host or cells: HeLa cell extract
# T5 sequence (P14373 1-513): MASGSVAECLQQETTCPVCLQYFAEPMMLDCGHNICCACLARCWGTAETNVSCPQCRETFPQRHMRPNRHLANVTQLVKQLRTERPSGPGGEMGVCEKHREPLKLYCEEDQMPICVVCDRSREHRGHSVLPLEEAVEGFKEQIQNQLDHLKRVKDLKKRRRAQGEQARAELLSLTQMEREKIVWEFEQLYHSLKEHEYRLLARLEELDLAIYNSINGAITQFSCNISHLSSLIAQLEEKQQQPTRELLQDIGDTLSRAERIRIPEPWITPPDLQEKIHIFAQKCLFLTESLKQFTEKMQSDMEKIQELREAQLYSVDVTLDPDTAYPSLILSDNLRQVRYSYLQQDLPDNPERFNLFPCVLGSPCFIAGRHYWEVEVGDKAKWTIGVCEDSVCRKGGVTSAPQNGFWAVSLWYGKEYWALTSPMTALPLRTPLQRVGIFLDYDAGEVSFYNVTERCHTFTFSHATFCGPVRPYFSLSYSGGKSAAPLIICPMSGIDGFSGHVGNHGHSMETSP
# [8] = system: TB11.03.0290; experiment: Multitargeted bead mixture competition; type: binding, T. brucei; settings: for fold change - vehicle control: protein TB11.03.0290 PROTEIN KINASE, PUTATIVE
# [9] = molecular target: T6, HeLa cell extract proteins (Homo sapiens, UniProt P62495); type: binding; settings: protein ETF1; HeLa
# T6 construct: endogenous in cells; host or cells: HeLa cell extract
# [10] = molecular target: T7, HeLa cell extract proteins (Homo sapiens, UniProt P10155); type: binding; settings: protein TROVE2; HeLa
# T7 construct: endogenous in cells; host or cells: HeLa cell extract
# T7 sequence (P10155 whole entry): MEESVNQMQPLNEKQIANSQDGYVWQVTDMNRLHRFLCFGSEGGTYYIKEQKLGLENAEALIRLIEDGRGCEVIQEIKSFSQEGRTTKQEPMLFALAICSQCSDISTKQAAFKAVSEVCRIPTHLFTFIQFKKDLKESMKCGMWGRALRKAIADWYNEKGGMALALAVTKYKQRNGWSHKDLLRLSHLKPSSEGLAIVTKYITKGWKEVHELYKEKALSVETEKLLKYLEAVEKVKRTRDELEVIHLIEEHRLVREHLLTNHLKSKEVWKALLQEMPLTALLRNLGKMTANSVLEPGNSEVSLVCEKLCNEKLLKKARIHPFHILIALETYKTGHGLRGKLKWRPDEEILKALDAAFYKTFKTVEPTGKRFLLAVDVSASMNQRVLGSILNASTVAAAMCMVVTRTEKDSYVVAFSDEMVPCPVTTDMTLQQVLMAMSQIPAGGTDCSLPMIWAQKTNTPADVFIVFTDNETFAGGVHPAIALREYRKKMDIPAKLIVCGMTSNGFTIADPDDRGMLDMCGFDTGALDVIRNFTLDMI
# [11] = HeLa, captured protein MTHFD1 (105 KDA PROTEIN.)
# [12] = bead mixture, Leishmania lysates
Compound,fold change [1],fold change vs vehicle control [2],"fold changes relative to vehicle control [3, 11]","fold changes relative to vehicle control ([4]; protein MTHFS, HeLa)","fold changes relative to vehicle control ([5]; HeLa, protein NIPSNAP1)","fold changes relative to vehicle control ([6]; protein FABP5, HeLa)","fold changes relative to vehicle control ([7]; HeLa, captured protein TRIM27)",fold change - vehicle control [8],"fold changes relative to vehicle control ([3]; HeLa, protein MTHFD1)","fold changes relative to vehicle control ([4]; captured protein MTHFS, HeLa)",fold changes relative to vehicle control [9],fold changes relative to vehicle control [10],further results
"Nc1nc2c(c(=O)[nH]1)N(C=O)C(CNc1ccc(C(=O)N[C@@H](CCC(=O)O)C(=O)O)cc1)CN2 (stereo partly drawn) [LEU, leucovorin]",1.05,0.96,0.61,0.15,1.02,1,0.97,,,,,,binding to MTHFS [4]: bound MTHFS
"Nc1nc2[nH]cc(CCc3ccc(C(=O)N[C@@H](CCC(=O)O)C(=O)O)cc3)c2c(=O)[nH]1 [PTX, pemetrexed]",0.93,0.91,,,,,,,,,,,fold changes relative to vehicle control [3]: 0.72; fold changes relative to vehicle control [4]: 0.17; binding to MTHFS [4]: bound MTHFS; fold changes relative to vehicle control [5]: 1.03; fold changes relative to vehicle control [6]: 1.45; fold changes relative to vehicle control [7]: 0.87
CCCCCCOc1ccc(Cc2cnc(N)nc2N)cc1 [compound 1],0.13,0.19,,,,,,0.91,0.05,0.21,1.08,1.05,"interaction with haloacid dehalogenase-like hydrolase (LmjF.28.1370) [1, 12]: interacted strongly; binding to methylthioadenosine phosphorylase (LmjF.05.0830) [2, 12]: bound"
CCCCCCOc1cccc(Cc2cnc(N)nc2N)c1 [compound 2],1,0.89,,,,,,0.99,0.84,0.89,1.92,1.49,
Nc1nc2cccc(-c3ccccc3)c2n1Cc1ccc(Cl)c(Cl)c1 [compound 3],1.07,0.94,,,,,,1.06,1.01,0.96,1.24,1.27,"percentage of competition from bead binding ([8]; multitargeted bead mixture, free ligand 100 μM, T. brucei lysate, TB11.03.0290): 10%"
NCCOCCOCC(=O)Nc1nc2ncc(CNc3ccc(C(=O)NC(CCC(=O)O)C(=O)O)cc3)nc2c(=O)[nH]1 (stereo not drawn) [compound 6],0.89,0.96,0.92,0.5,1.04,1.3,0.89,,,,,,
NCCCNc1ccc(C(=O)NC(CCC(=O)O)C(=O)O)cc1 (stereo not drawn) [compound 7],1.02,1.02,1,1.03,1.03,1.1,1.01,,,,,,
